Results taken from PubChem BioAssay (NCI).
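Where inhibition never reached the appropriate level, the endpoint shown equals the highest concentration tested. Otherwise, values were interpolated linearly from a five-concentration, 48-hour dose response in 96-well plates. Definition used: TGI = concentration required for complete inhibition of growth.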

Experiments:
Experiment in all cases: growth of human tumour cells (NCI), 48 h
[1] = system: A498 renal
[2] = system: DU-145 prostate
[3] = system: HCT-116 colon
[4] = system: HOP-62 NSCLC
[5] = system: M14 melanoma
[6] = system: MDA-MB-231 breast
[7] = system: MDA-N
[8] = system: NCI-H460 lung
[9] = system: OVCAR-8 ovarian
[10] = system: RXF 393 renal
[11] = system: SF-268 CNS
[12] = system: SK-MEL-28 melanoma
[13] = system: SW-620 colon

| Compound | TGI [1] | TGI [2] | TGI [3] | TGI [4] | TGI [5] | TGI [6] | TGI [7] | TGI [8] | TGI [9] | TGI [10] | TGI [11] | TGI [12] | TGI [13] |
| --- | --- | --- | --- | --- | --- | --- | --- | --- | --- | --- | --- | --- | --- |
| CC(=O)NC1C(OCc2ccccc2)OC(CO)C(O)C1OCC(=O)N1CCCC1C(=O)NC(CCC(=O)NCCCCCNc1c2ccccc2nc2cccc([N+](=O)[O-])c12)C(N)=O (stereo unspecified) | 0.345 µM | 0.107 µM | 0.137 µM | 0.125 µM | 0.0591 µM | 0.0426 µM | 0.0499 µM | 0.0171 µM | 0.0817 µM | 0.0253 µM | 0.0966 µM | 0.11 µM | 0.0424 µM |
| CSc1nc(C)c(CCCl)c(Cl)n1 | > 100 µM | > 100 µM | > 100 µM | > 100 µM | > 100 µM | > 100 µM | > 100 µM | > 100 µM | > 100 µM | > 100 µM | > 100 µM | > 100 µM | > 100 µM |
| Nc1cc(N)c(N=Nc2cccc3c(S(=O)(=O)O)cccc23)cc1N=Nc1cc([N+](=O)[O-])ccc1O | > 100 µM | > 100 µM | > 100 µM | > 100 µM | > 100 µM | > 100 µM | > 100 µM | 74.1 µM | > 100 µM | > 100 µM | 54.8 µM |  | > 100 µM |
| C#CC(O)Cc1ccc(OC)c2occc12 (stereo unspecified) | > 100 µM | > 100 µM | > 100 µM | > 100 µM | > 100 µM | > 100 µM | > 100 µM | > 100 µM | > 100 µM | > 100 µM | > 100 µM |  | > 100 µM |
| Cc1ccc(-n2cc(-c3ccc(Cl)cc3)c3c2N=CN2NC(c4cccs4)=NC32)cc1 (stereo unspecified) | 35.9 µM | > 100 µM | 22 µM | 35.2 µM | > 100 µM | 21.5 µM | > 100 µM | 19.2 µM | 21 µM | 31.4 µM | 69.5 µM | > 100 µM | > 100 µM |
| CCN1C(=O)CS/C1=N\NC(=O)CSc1nc2ccccc2c(=O)n1CC | > 100 µM | > 100 µM | > 100 µM | > 100 µM | > 100 µM | > 100 µM | > 100 µM | > 100 µM | > 100 µM | > 100 µM | > 100 µM | > 100 µM | > 100 µM |
| NCCC1([N+](=O)[O-])CCNCC1 | > 100 µM | > 100 µM | > 100 µM | > 100 µM | > 100 µM | > 100 µM | > 100 µM | > 100 µM | > 100 µM | > 100 µM | > 100 µM | > 100 µM | > 100 µM |
| O=C(O)CCc1nc2cc3ccccc3cc2[nH]c1=O | > 100 µM | > 100 µM | > 100 µM | > 100 µM | > 100 µM | > 100 µM | > 100 µM | > 100 µM | > 100 µM | > 100 µM | > 100 µM | > 100 µM | > 100 µM |
| Cc1nc(Nc2nc3ccccc3[nH]2)[nH]c(=O)c1CCO | > 100 µM | > 100 µM | > 100 µM | > 100 µM | 98.9 µM | > 100 µM | > 100 µM | > 100 µM | > 100 µM | > 84.3 µM | > 100 µM | > 100 µM | > 100 µM |
| O=c1c(Sc2ncccn2)c(Sc2ncccn2)cnn1CCl | 36.3 µM | 9.23 µM | 3.89 µM | 8.05 µM | 4.76 µM | 19 µM | 5.59 µM | 32.9 µM | 7.53 µM | 3.46 µM | 9.57 µM | 12.7 µM | 17.9 µM |
| CCc1n[nH]c(=S)n1/N=C\c1ccc(-c2ccccc2[N+](=O)[O-])o1 | > 100 µM | > 100 µM | > 100 µM | > 100 µM | > 100 µM | > 100 µM | 39.2 µM |  | > 100 µM | > 100 µM | > 100 µM |  | > 100 µM |
| COc1nc(C)nc2c1ncn2Cc1ccccc1 | > 100 µM | > 100 µM | > 100 µM | > 100 µM | > 100 µM | > 100 µM | > 100 µM | > 100 µM | > 100 µM | > 100 µM | > 100 µM | > 100 µM | > 100 µM |
| CCCc1cc(-c2ccc(-c3cc(CCC)c(C=O)[nH]3)s2)[nH]c1C=O | > 100 µM | > 100 µM | > 100 µM | > 100 µM | > 100 µM | > 100 µM | > 100 µM | > 100 µM | > 100 µM | > 87.9 µM | > 100 µM | > 100 µM | > 100 µM |
| COC1C(OC(N)=O)C(O)C(Oc2ccc3c(O)c(NC(=O)c4ccc(O)c(CC=C(C)C)c4)c(=O)oc3c2C)OC1(C)C (stereo unspecified) | > 100 µM | > 100 µM | > 100 µM | > 100 µM | > 100 µM | > 100 µM | > 100 µM | > 100 µM | > 100 µM | > 100 µM | > 100 µM | > 100 µM | > 100 µM |
| O=[N+]([O-])c1ccc2[nH]c(O)c(N=NC(=S)Nc3ccccc3)c2c1 | 13.2 µM | 67.3 µM | 18.6 µM | 21.8 µM | 22.4 µM | 24.8 µM | 21.7 µM | 14.5 µM | 31.8 µM | 26.4 µM |  | 52.2 µM | > 100 µM |
| CCOP(=O)(OCC)C(=C1C=C(C(C)(C)C)C(=O)C(C(C)(C)C)=C1)P(=O)(OCC)OCC | > 10 µM | > 10 µM | 5.67 µM | > 10 µM | 4.11 µM | > 10 µM | > 9.4 µM | > 10 µM | > 10 µM | > 10 µM | > 10 µM | > 10 µM | 3.55 µM |
| COC(=O)C1(C)OC(C)=NC1(C(=O)OC)C(=O)OC (stereo unspecified) | > 100 µM | > 100 µM | > 100 µM | > 100 µM | > 100 µM | > 100 µM | > 100 µM | > 100 µM | > 100 µM | > 100 µM | > 100 µM | > 100 µM | > 100 µM |
